The data set in a line: Room temperature storage of ketorolac formulated at different pH. It is filed as physicochemical. Conditions: formulated with a pH of less than 5 or greater than 9.

For the compound `O=C(c1ccccc1)c1ccc2n1CCC2C(=O)O` (stereo not shown) [ketorolac, Ketorolac], the “degradation when stored at room temperature” value was “would degrade”.

Source of the values: patent US20160296498A1, “Ketorolac Sublingual Spray Formulations” (Insys Development Company, Inc., priority 2015, published 2016).
